How the values were obtained:
[1] = test system: lung tissue gene expression in BLM-induced SSc model; conditions: 0.3 mg/kg
Protocol: Total RNA of mouse lung tissue samples of PBSY_vehicle (control group without disease), BLM_vehicle (control group with disease), and BLM_Compound A (0.3 mg/kg) obtained from the BLM-induced SSc model (prophylactic evaluation) was used for analysis. The purity, concentration, and quality of the RNA samples were confirmed with NanoDrop 2000 (Thermo Fisher Scientific) and Agilent 2100 bioanalyser (Agilent Technologies). The RNA was then Cy3-labeled using a Low Input Quick Amp Labeling Kit, one-color (Agilent Technologies). Labeled cRNA samples were fragmented, and then hybridized with the Agilent SurePrint G3 Mouse GE v2 8×60 K Microarray (Agilent Technologies) using a Gene Expression Hybridization Kit (Agilent Technologies). After hybridization, the microarray was washed with the Gene Expression Wash Buffers Pack (Agilent Technologies) and imaged with a scanner to detect the signals. Signal intensities were evaluated with Agilent Feature Extraction software 12.0.
Bioinformatics analysis in this study was performed with software, including GeneSpring GX 14.9.1, IPA 2019 autumn, and Microsoft Excel 2010. Genes that fluctuated ≥2 fold in BLM_vehicle group in comparison with those of the PBS_vehicle group and that satisfied a p-value <0.05 of the moderated t-test were defined as “differentially expressed genes (DEGs) in the disease model”. Among DEGs, the genes in the Compound A treatment group that fluctuated ≥1.5 fold in the opposite direction and met a p-value <0.05 of the moderated t-test in comparison with those of the BLM_vehicle group were defined as “DEGs by Compound A treatment”. DEGs were inputted into IPA and two types of calculations were performed: “Canonical pathways” and “Diseases or functions”. Here, “Canonical pathways” is described as “pathways” and “Diseases or functions” is described as “category”. The former contains a list for a series of gene interactions and the latter is a list related to diseases and biological functions. These datasets are registered in the IPA software. Initially, the Fisher's exact test was used to calculate the probability of overlap between two sets of genes. Thereafter, downstream effect analysis (DSEA) was used to calculate the activation z-score. DSEA is a technique for predicting the direction of change in expression patterns (either activation or inhibition) based on the expected causal effects between genes and functions. Based on the results of the DSEA analysis, information about the cell type (macrophages, neutrophils, mononuclear leukocytes, T-lymphocytes, B-lymphocytes, smooth muscle cells, endothelial cells, epithelial cells, and fibroblasts) that may be involved in the pathogenesis of SSc was extracted. Subsequently, information regarding biological functions and molecular signaling pathways, such as inflammation/immune abnormality, vascular dysfunction, and fibrosis, involved in the pathogenesis of SSc are extracted.
DNA microarray analysis was carried out using lung samples from a BLM-induced SSc model (prevention model) to which 0.3 mg/kg of Compound A was administered. Bioinformatics analysis was carried out using IPA software, and two datasets were used to perform two types of calculations (“Canonical pathways” and “Diseases or functions”). Downstream effect analysis was used to calculate the activation z-score.

[2] = test system: serum proteins in BLM-induced SSc model; conditions: Compound A 10 mg/kg
Protocol: Serum samples were obtained from mice of the BLM-induced SSc model (therapeutic evaluation). Samples from the saline_vehicle (control group without disease), BLM_vehicle (control group with disease), BLM_Compound A (10 mg/kg), and BLM_imatinib (150 mg/kg) groups were used for analysis. Using a Luminex assay (R&D systems), 110 proteins were investigated (supplemental Table s1). Proteins satisfying any of the following criteria were analyzed: i) all samples were adequately measured within the quantitative range; ii) more than half of the samples in one or more groups were quantified, although some samples were out of the quantitative range.
Using serum samples of mice to which 10 mg/kg of Compound A and 150 mg/kg of imatinib were administered, serum protein profiling was carried out in a BLM-induced SSc model (treatment model). Using a Luminex assay, 110 kinds of proteins were investigated.

COC[C@H]1CN(C(=O)[C@]2(F)CN(C3CCCC3)C[C@H]2c2ccc(OC)cc2)C[C@@H]1c1ccc(C(F)(F)F)cc1N1CCC(C(=O)O)CC1 [Compound A, 1-{2-[(3S,4R)-1-{[(3R,4R)-1-cyclopentyl-3-fluoro-4-(4-methoxyphenyl)pyrrolidin-3-yl]carbonyl}-4-(methoxymethyl)pyrrolidin-3-yl]-5-(trifluoromethyl)phenyl}piperidine-4-carboxylic acid]
1477: number of DEGs by Compound A treatment (≥1.5 fold in opposite direction, p<0.05 vs BLM_vehicle) ([1]; among 3337 DEGs in the disease model)
downregulated the most: expression of the IL-6 gene among component genes of the IL-6 signaling pathway ([1]; remarkably upregulated by BLM)
suppressed: category activation of antigen-presenting cells (activated by BLM) ([1]; IPA downstream effect analysis) | category angiogenesis (activated by BLM) ([1]; IPA downstream effect analysis) | category atherosclerosis (activated by BLM) ([1]; IPA downstream effect analysis) | category inflammatory response (activated by BLM) ([1]; IPA downstream effect analysis) | category vasculogenesis (activated by BLM) ([1]; IPA downstream effect analysis) | category vaso-occlusion (activated by BLM) ([1]; IPA downstream effect analysis) | T-lymphocyte-related categories (IPA activation z-score) ([1]; not changed by BLM) | endothelial cell-related categories (IPA activation z-score) ([1]; not changed by BLM)
reversed: gene expression fluctuation induced by BLM in IL-6 pathway genes (upstream and downstream) [1]
affected: IL-6 signaling pathway ([1]; IPA canonical pathways) | PPAR signaling pathway ([1]; IPA canonical pathways) | TREM1 signaling pathway ([1]; IPA canonical pathways) | oncostatin M signaling pathway ([1]; IPA canonical pathways)
significantly suppressed: BLM-induced elevation of serum GDF-15 [2] | BLM-induced elevation of serum MMP-2 [2] | BLM-induced elevation of serum MMP-3 [2] | BLM-induced elevation of serum P-selectin [2] | BLM-induced elevation of serum S100A9 [2] | BLM-induced elevation of serum TIMP-1 [2] | BLM-induced elevation of serum TNFRI [2] | BLM-induced elevation of serum TNFRII [2] | BLM-induced elevation of serum adiponectin [2] | BLM-induced elevation of serum cystatin C [2] | BLM-induced elevation of serum osteoprotegerin [2]

Reference: patent US12533350B2, “Use of melanocortin-1 receptor agonist” (TANABE PHARMA CORPORATION, priority 2022, dated 2026)
